Experimental data: ChEMBL document CHEMBL4364355, “New Negamycin-Based Potent Readthrough Derivative Effective against TGA-Type Nonsense Mutations” (ACS Med Chem Lett, 2019)
Calls of active or inactive are those of the source. The calls are words filed in the database; no cut-off is given here.

Columns and labels:
Type in all cases: cell-based
Mus musculus [1] = species on record: Mus musculus; assay: (§1) Induction of read through activity at premature termination codon TGA (non-sense mutation associated with DMD disease) in 27-mer DNA stretch sequence of mouse dystrophin mdx gene transfected as a plasmid by connecting with beta-galactosidase and luciferase genes in COS7 cells assessed as ratio of luciferase activity to beta-galactosidase activity at 200 uM incubated for 48 hrs by dual luciferase reporter gene assay relative to control
Mus musculus [2] = species on record: Mus musculus; assay: as §1, with “TAG” for “TGA”
Mus musculus [3] = species on record: Mus musculus; assay: as §1, with “TAA” for “TGA”
Mus musculus [4] = species on record: Mus musculus; assay: as §1, with “cells” for “cells assessed as ratio of luciferase activity to beta-galactosidase activity at 200 uM”, “assay” for “assay relative to control”
Homo sapiens [5] = species on record: Homo sapiens; assay: Induction of read through activity at premature termination codon TGA in human RLuc-DMD R3381X non-sense mutation sequence transfected in COS7 cells at 200 uM incubated for 48 hrs by dual luciferase reporter gene assay relative to control
Homo sapiens [6] = species on record: Homo sapiens; assay: Induction of read through activity at premature termination codon TGA in human RLuc-TP53 R213X non-sense mutation sequence transfected in COS7 cells at 200 uM incubated for 48 hrs by dual luciferase reporter gene assay relative to control
Homo sapiens [7] = species on record: Homo sapiens; assay: Induction of read through activity at premature termination codon TAG in human RLuc-TP53 Q192X non-sense mutation sequence transfected in COS7 cells at 200 uM incubated for 48 hrs by dual luciferase reporter gene assay relative to control
Homo sapiens [8] = species on record: Homo sapiens; assay: Induction of read through activity at premature termination codon TGA in human RLuc-CF G542X non-sense mutation sequence transfected in COS7 cells at 200 uM incubated for 48 hrs by dual luciferase reporter gene assay relative to control
Homo sapiens [9] = species on record: Homo sapiens; assay: Induction of read through activity at premature termination codon TGA in human RLuc-CF W1282X non-sense mutation sequence transfected in COS7 cells at 200 uM incubated for 48 hrs by dual luciferase reporter gene assay relative to control
Homo sapiens [10] = species on record: Homo sapiens; assay: Induction of read through activity at premature termination codon TGA in human RLuc-LAMA2 C1546X non-sense mutation sequence transfected in COS7 cells at 200 uM incubated for 48 hrs by dual luciferase reporter gene assay relative to control
HDQ-P1 [11] = assay: (§2) Induction of read through activity at premature termination codon TGA in human HDQ-P1 cells harboring TP53 R213X homozygous non-sense mutation sequence assessed as expression of full length p53 protein at 200 uM incubated for 72 hrs by automated capillary electrophoresis western analysis relative to vinculin expression
HDQ-P1 [12] = assay: as §2, with “12.5” for “200”
HDQ-P1 [13] = assay: as §2, with “25” for “200”
HDQ-P1 [14] = assay: as §2, with “50” for “200”
HDQ-P1 [15] = assay: as §2, with “100” for “200”
HDQ-P1 [16] = assay: Induction of read through activity at premature termination codon TGA in human HDQ-P1 cells harboring TP53 R213X homozygous non-sense mutation sequence at 200 uM incubated for 72 hrs by automated capillary electrophoresis western analysis relative to G418
Mus musculus [17] = species on record: Mus musculus; assay: as §1, with “cells” for “cells assessed as ratio of luciferase activity to beta-galactosidase activity at 200 uM”, “(+)-negamycin” for “control”
Mus musculus [18] = species on record: Mus musculus; assay: as §1, with “cells” for “cells assessed as ratio of luciferase activity to beta-galactosidase activity at 200 uM”, “(+)-G418” for “control”
Mus musculus [19] = species on record: Mus musculus; assay: as §1, with “cells” for “cells assessed as ratio of luciferase activity to beta-galactosidase activity at 200 uM”, “TGP112” for “control”
COS-7 = assay: Cytotoxicity against African green monkey COS7 cells assessed as decrease in cell viability by WST1 assay; conditions: Chlorocebus aethiops
HDQ-P1 [20] = assay: Cytotoxicity against human HDQ-P1 cells at 200 uM; conditions: hdq-p1, 200 µM

`CCCC[C@H](N)C(=O)N[C@@H](CCN)CC(=O)NN(C)CC(=O)O` gave a Ratio (Mus musculus [1]) of 4.21.

`CN(CC(=O)O)NC(=O)C[C@H](CCN)NC(=O)[C@@H](N)CCC(N)=O` gave a Ratio (Mus musculus [1]) of 1.62.

For `CN(CC(=O)O)NC(=O)C[C@H](CCN)NC(=O)[C@@H](N)CN`, the Ratio (Mus musculus [1]) was 3.02.

In the case of `CN(CC(=O)O)NC(=O)C[C@H](CCN)NC(=O)[C@@H](N)CCCCN`, the Ratio (Mus musculus [1]) is reported as 2.49.

`CN(CC(=O)O)NC(=O)C[C@H](CCN)NC(=O)[C@@H](N)CCCN` gave a Ratio (Mus musculus [1]) of 2.96.

`CN(CC(=O)O)NC(=O)C[C@H](CCN)NC(=O)CN` gave a Ratio (Mus musculus [1]) of 2.74.

Work on `CN(CC(=O)O)NC(=O)C[C@H](CCN)NC(=O)[C@@H](N)CC(N)=O` yielded a Ratio (Mus musculus [1]) of 2.21.

With `CCCCCCCCC[C@H](N)C(=O)N[C@@H](CCN)CC(=O)NN(C)CC(=O)O` the Ratio (Mus musculus [1]) was 16 to 18.3, the Ratio (Mus musculus [2]) was 4.39 and the Ratio (Mus musculus [3]) was 2.24. For the same molecule, the Activity (Mus musculus [4]) was “Dose-dependent effect”, the Activity (Homo sapiens [5]) was 2.25 to 7.3% and the Activity (Homo sapiens [6]) was 2.25 to 7.3%. For the same molecule, the Activity (Homo sapiens [7]) was “inactive”, the Activity (Homo sapiens [8]) was 2.25 to 7.3% and the Activity (Homo sapiens [9]) was “inactive”. It also gave an Activity (Homo sapiens [10]) of 6.34%, a Ratio (HDQ-P1 [11]) of 215 and a Ratio (HDQ-P1 [12]) of 2.3. It also gave a Ratio (HDQ-P1 [13]) of 2.4, a Ratio (HDQ-P1 [14]) of 6.7 and a Ratio (HDQ-P1 [15]) of 48. The Ratio (HDQ-P1 [16]) was 3, the Ratio (Mus musculus [17]) was 10 and the Ratio (Mus musculus [18]) was 2. It also gave a Ratio (Mus musculus [19]) of 4.

For `CCCCCCCCCCC[C@H](N)C(=O)N[C@@H](CCN)CC(=O)NN(C)CC(=O)O`, the IC50 (COS-7) was 68.2 µM.

With `CCCCCCC[C@H](N)C(=O)N[C@@H](CCN)CC(=O)NN(C)CC(=O)O` the Ratio (Mus musculus [1]) was 7.97 and the Ratio (Mus musculus [19]) was 2.

For `CN(CC(=O)O)NC(=O)C[C@H](CCN)NC(=O)[C@@H](N)CCC(=O)O`, the Ratio (Mus musculus [1]) was 1.8.

Work on `CN(CC(=O)O)NC(=O)C[C@H](N)C[C@@H](O)CN` yielded a Ratio (Mus musculus [1]) of 1.47 to 2.25, a Ratio (Mus musculus [2]) of 1.17 and a Ratio (Mus musculus [3]) of 1.13.

For `CN(CC(=O)O)NC(=O)C[C@H](CCN)NC(=O)[C@@H](N)Cc1ccccc1`, the Ratio (Mus musculus [1]) was 2.99.

In the case of `CN(CC(=O)O)NC(=O)C[C@H](CCN)NC(=O)[C@@H](N)CO`, the Ratio (Mus musculus [1]) is reported as 1.48.

With `CC(C)CCC(=O)N[C@@H](CCN)CC(=O)NN(C)CC(=O)O` the Ratio (Mus musculus [1]) was 2.82.

Molecule `CN(CC(=O)O)NC(=O)C[C@H](CCN)NC(=O)[C@@H](N)CC1CCCCC1` has a Ratio (Mus musculus [1]) of 5.87.

Work on `CC(C)C[C@@H](N)C(=O)N[C@@H](CCN)CC(=O)NN(C)CC(=O)O` yielded a Ratio (Mus musculus [1]) of 1.46.

`CC(C)C[C@H](N)C(=O)N[C@@H](CCN)CC(=O)NN(C)CC(=O)O` gave a Ratio (Mus musculus [1]) of 4.94.

Molecule `CN(CC(=O)O)NC(=O)C[C@@H](N)CCN` has a Ratio (Mus musculus [1]) of 3.8 to 4.26, a Ratio (Mus musculus [2]) of 1.48 and a Ratio (Mus musculus [3]) of 1.2. It also gave an Activity (Homo sapiens [6]) of 1.95%, an Activity (Homo sapiens [10]) of 1.85% and a Ratio (HDQ-P1 [11]) of 7.9.

`CN[C@@H](CC(C)C)C(=O)N[C@@H](CCN)CC(=O)NN(C)CC(=O)O` showed a Ratio (Mus musculus [1]) of 2.45.

In the case of `CCCCC[C@H](N)C(=O)N[C@@H](CCN)CC(=O)NN(C)CC(=O)O`, the Ratio (Mus musculus [1]) is reported as 3.4.

In the case of `CN(CC(=O)O)NC(=O)C[C@H](CCN)NC(=O)[C@@H](N)Cc1ccc(O)cc1`, the Ratio (Mus musculus [1]) is reported as 2.59.

`CN(CC(=O)O)NC(=O)C[C@H](CCN)NC(=O)[C@@H](N)CCN` showed a Ratio (Mus musculus [1]) of 3.25.

Molecule `C[C@H](N)C(=O)N[C@@H](CCN)CC(=O)NN(C)CC(=O)O` has a Ratio (Mus musculus [1]) of 2.4.

`CN[C@H]1[C@H](O)[C@H](O[C@@H]2[C@@H](O)[C@H](O[C@H]3O[C@H]([C@@H](C)O)[C@@H](O)[C@H](O)[C@H]3N)[C@@H](N)C[C@H]2N)OC[C@@]1(C)O` gave a Ratio (Mus musculus [1]) of 7.43 to 7.99, a Ratio (Mus musculus [2]) of 7.86 and a Ratio (Mus musculus [3]) of 4.78. The Activity (Homo sapiens [5]) was 1.62 to 7.25%, the Activity (Homo sapiens [6]) was 1.62 to 7.25% and the Activity (Homo sapiens [7]) was 1.62 to 7.25%. For the same molecule, the Activity (Homo sapiens [8]) was 1.62 to 7.25%, the Activity (Homo sapiens [9]) was 1.62 to 7.25% and the Activity (Homo sapiens [10]) was 1.62 to 7.25%. For the same molecule, the Ratio (HDQ-P1 [11]) was 72 and the Activity (HDQ-P1 [20]) was “Non-Toxic”.

For `CC(C)C[C@H](N)C(=O)N[C@@H](CCCN)CC(=O)NN(C)CC(=O)O`, the Ratio (Mus musculus [1]) was 2.3, the Ratio (Mus musculus [2]) was 1.3 and the Ratio (Mus musculus [3]) was 1.11.

Molecule `CC(C)[C@H](N)C(=O)N[C@@H](CCN)CC(=O)NN(C)CC(=O)O` has a Ratio (Mus musculus [1]) of 2.

`CN(CC(=O)O)NC(=O)C[C@H](CCN)NC(=O)[C@@H](N)CC(=O)O` gave a Ratio (Mus musculus [1]) of 1.96.

With `CC[C@H](C)[C@H](N)C(=O)N[C@@H](CCN)CC(=O)NN(C)CC(=O)O` the Ratio (Mus musculus [1]) was 1.83.
